Experimental data reported in patent US7659277B2, “Ubiquitin ligase inhibitors and methods related thereto” (Proteologies, Ltd., priority 2003, dated 2010).

What follows are compounds tested against T1, POSH (Homo sapiens, UniProt Q7Z6J0) (assay: Selectivity (% A in 1 μM), ubiquitin ligase activity of POSH). Settings: % activity at 1 μM compound; control is related to 100% activity; HTS protocol; read-out: Selectivity (% A* in 1 μM) POSH.
T1 construct: GST-POSH lot NB81/p.118 3.6 mg/ml; fused on or other part: GST tag, used for detection with anti-GST XL665
T1 sequence (Q7Z6J0 1-269 limits assumed): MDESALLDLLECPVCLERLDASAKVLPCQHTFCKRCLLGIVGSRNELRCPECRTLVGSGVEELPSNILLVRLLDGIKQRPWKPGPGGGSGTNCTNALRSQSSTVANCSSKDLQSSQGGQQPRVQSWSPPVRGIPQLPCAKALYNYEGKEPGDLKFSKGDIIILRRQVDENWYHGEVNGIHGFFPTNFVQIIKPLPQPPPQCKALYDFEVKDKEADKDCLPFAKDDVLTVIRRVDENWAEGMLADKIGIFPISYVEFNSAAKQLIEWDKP
Format: biochemical
Protocol: Experimental Protocols: 1. HTS Screening Assay Procedure • Microplates 10109D to 10114D compounds at 1 mM. • (Controls in column 1). • All compounds were perchase from ChemBridge corporation: ChemBridge corporation 16981 Via Tazon, Suite G San Diego, Calif. 92127 a. Microplates Labeling • Put labels to 6 PS U-bottom clear microplate. • Put labels to 18 black microplates (triplicats). b. Microplates Preparation • Put 100 μl GST-POSH at 33 nM in wells of the clear PS U-bottom microplates (exept wells A1-D1). • Negative control: place 100 μl dH2O in wells A1-D1. • (Positive control: place 100 μl GST-POSH at 33 nM in wells E1-H1). • Put 8 μl enzymes solution ×4 to black microplates (column 1 to 11). c. Incubation of E3 with Compounds • Transfer 5 μl of compounds (at 1 mM) to the microplates containing 100 μl GST-POSH. • Add 5 μl of DMSO to controls column 1. • Incubation 30 minutes at RT. d. […] 2. […] Microplates Labeling • Put labels to 4 clear PP clear microplate (18.2 μM, 9.1 uM, 1.82 uM, 910 nM,). • Put labels to 5 clear PS U-bottom clear microplate 4.44 μM, 909, 444, 91 and 44 nM) • Put labels to 15 black microplates (triplicates). f. Original Microplate Dilutions • Put DMSO 40 μl to (18.2 μM, 1.82 uM plates) and 20 ul to (9.1 uM, 910 nM plates. • Mix by pipetation the original microplate (3× up and down 45 μl). • Transfer 10 μl of compounds from the original microplate (at 91 μM) to the next microplate (=18.2 μM) on splitting apparatus. • Mix by pipetation the 18.2 uM microplate (3× up and down 45 μl). • Transfer 20 μl of compounds from the 18.2 uM microplate to the next microplate (=9.1 μM) on splitting apparatus. • Mix by pipetation the 9.1 uM microplate (3× up and down 45 μl). • Transfer 10 μl of compounds from the 9.1 uM microplate to the next microplate (=1.82 μM) on splitting apparatus. • Mix by pipetation the 1.82 uM microplate (3× up and down 45 μl). • Transfer 20 μl of compounds from the 1.82 uM microplate to the next microplate (=910 nM) on splitting apparatus • Mix by pipetation. g. Microplates Preparation • Put 123 μl GST-POSH at 33 nM in wells of the 5 clear PS U-bottom clear microplates. • Positive control: place 123 μl GST-POSH at 33 nM in well A12-h12 13 μl DMSO. • Negative control: place 123 μl dH2O in well B1 and 13 μl DMSO. • Put 8 μl enzymes solution ×4 to 15 black microplates. • Controls: put 8 μl enzymes solution ×4 to wells A1 to F1. h. Incubation of POSH with Compounds • Take 7 μl of compounds at original plate (91 μM) and put into the 4.44 μM labeled microplate containing 123 μl GST-POSH, on splitting apparatus. • Mix by pipetation (3× up and down 115 μl), note time. • Take 7 μl of compounds at 18.2 μM and put into the 910 nM labeled microplate containing 123 μl GST-POSH, on splitting apparatus. • Mix by pipetation (3× up and down 115 μl), note time. • Take 7 μl of compounds at 9.1 μM and put into the 444 nM labeled microplate containing 123 μl GST-POSH, on splitting apparatus. • Mix by pipetation (3× up and down 115 μl), note time. • Take 7 μl of compounds at […] and put into the 91 nM labeled microplate containing 123 μl GST-POSH, on splitting apparatus. • Mix by pipetation (3× up and down 115 μl), note time. • Take 7 μl of compounds at 91.0 nM and put into the 44 nM labeled microplate containing 123 μl GST-POSH, on splitting apparatus. • Mix by pipetation (3× up and down 115 μl), note time. • Incubation 30 minutes at RT. i.
Compound `Oc1ccc(/N=C/c2cccs2)cc1-c1nc2ccccc2s1` [Compound 71] has a remaining activity at 1 µM of 9%. `Cc1ccc2nc(-c3ccc(/N=C/c4ccc([N+](=O)[O-])s4)cc3)sc2c1` [Compound 72] was tested, and the remaining activity at 1 µM was 39%. `Cc1ccc(/C=N/c2ccc(C(N)=O)cc2)o1` [Compound 73] showed a remaining activity at 1 µM of 16%. Compound `Cc1ccc(/C=N/c2ccc(Cl)cc2)o1` [Compound 74] has a remaining activity at 1 µM of 17%. For `CC(=O)Nc1ccc(-c2cc3ccccn3c2)cc1` [Compound 78], the remaining activity at 1 µM was 22%. With `O=C(C(Cl)Cl)N1CCN(c2ccc([N+](=O)[O-])cc2)CC1` [Compound 79] the remaining activity at 1 µM was 120%. Compound `O=[N+]([O-])c1ccc(Cl)cc1CN1CCN(CCO)CC1` [Compound 82] has a remaining activity at 1 µM of 60%. Work on `Cc1cc(I)ccc1NCn1nnc2ccccc21` [Compound 105] yielded a remaining activity at 1 µM of 28%. With `COc1ccc(CNc2cccc(N(C)C)c2)cc1` [Compound 106] the remaining activity at 1 µM was 27%. With `COc1ccc(CC(C)NCc2ccccc2Cl)cc1` (centres unmarked) [Compound 107] the remaining activity at 1 µM was 68%. Compound `O=C1NC(=O)/C(=C\c2ccc(-c3ccc(F)cc3)o2)S1` [Compound 108] has a remaining activity at 1 µM of 42%. For `Cc1cc(/N=C/c2c(O)ccc3ccccc23)no1` [Compound 111], the remaining activity at 1 µM was 17%. Work on `Oc1c(Br)cc(Br)cc1/C=N/c1cccc2nsnc12` [Compound 112] yielded a remaining activity at 1 µM of 27%. With `COc1ccc(/C=C/C(=O)C2C(=O)CCC2=O)cc1OC` [Compound 113] the remaining activity at 1 µM was 74%.

Same assay, conditions: read-out: Selectivity (% A* in 1 μM) POSH
Work on `Cc1c(C(=O)/C=C/c2ccccc2)c2cc(O)ccc2n1C` [Compound 75] yielded a remaining activity at 1 µM of 103%. Compound `Cc1c(C(=O)/C=C/c2cccs2)c2cc(O)ccc2n1C` [Compound 76] has a remaining activity at 1 µM of 35%. `O=[N+]([O-])c1ccc(CN2CCN(c3cccc(Cl)c3)CC2)o1` [Compound 80] was tested, and the remaining activity at 1 µM was 50%. In the case of `CCCCOc1ccc(NC(=S)N2CCn3c4c(c(=O)c5cc(C)ccc53)CCC42)cc1` (centres unmarked) [Compound 81], the remaining activity at 1 µM is reported as 3%. For `O=c1nc(-c2ccc(Br)cc2)cc(-c2ccc([N+](=O)[O-])cc2)[nH]1` [Compound 84], the remaining activity at 1 µM was 67%. `C=CCN1C(=O)/C(=C/c2c3ccccc3cc3ccccc23)SC1=S` [Compound 109] showed a remaining activity at 1 µM of 67%. With `CN(C)c1ccc(/C=C2\SC(=S)N(C3CCS(=O)(=O)C3)C2=O)cc1` (centres unmarked) [Compound 110] the remaining activity at 1 µM was 94%. With `COc1ccc(NC(=O)c2cc3cccc(N)c3cc2O)cc1` [Compound 114] the remaining activity at 1 µM was 31%. In the case of `CN1C(=O)/C(=C\c2ccc(-c3cccc([N+](=O)[O-])c3)o2)SC1=S` [Compound 115], the remaining activity at 1 µM is reported as 8%.
